Where “and” joins values, the source holds several entries; their conditions need not be identical. Identical values can stand only once.
What was measured:
Penicillium italicum = test: Treatment of oranges (Examples 6-9): wounded, inoculated, wound treated with antifungal composition; assay type: in vivo; conditions: for Observed antifungal activity O (%): oranges, 20° C.
Procedure: During incubation, mould growth on the strawberries was assessed in a twofold manner: (i) the number of moulded strawberries per total of 12 strawberries was counted; and (ii) the antifungal activity (in %) of the individual and combined active ingredients was determined by calculating the reduction in mould growth observed on the strawberries treated with the antifungal composition in comparison to the mould growth on the strawberries treated with the control composition. The expected antifungal activity (E in %) of the combined antifungal composition comprising both active ingredients was calculated according to the Colby equation (Colby, 1967): […]
Eight fresh, organic oranges were used per treatment. Each orange was soaked in a 180 ppm hypochlorite solution for 10 minutes, then rinsed thoroughly with fresh tap water and dried. The peel of each disinfected orange was wounded once using a cork borer according to the method described by de Lapeyre de Bellaire and Dubois (1987). Subsequently, each wound was inoculated with 10 μl of a Penicillium italicum suspension containing 5×10^5 of spores/ml. After incubation for 3 hours at 20° C., each wound and the orange peel area of 1 cm around the wound was treated with in total 150 μl of a freshly prepared aqueous antifungal composition comprising either 500 ppm natamycin (DSM Food Specialties, Delft, The Netherlands), 500 ppm fenpropidin or both. Each antifungal composition also comprised 3.2% (w/w) beeswax, 0.8% (w/w) glycerol, 0.7% (w/w) polyoxyethylene sorbitan monostearate (Tween 60), 0.1% (w/w) polyoxyethylene sorbitan monooleate (Tween 80), 0.05% (w/w) methylhydroxyethyl-cellulose (MHEC), 0.03% (w/w) anti-foaming agent, 0.02% (w/w) xanthan gum, 0.02% (w/w) citric acid, 0.01% (w/w) lactic acid and 0.01% potassium sorbate. A composition without natamycin or fenpropidin was used as control. […] The treated oranges were incubated in a closed box in the dark at 20° C. and assessed on mould growth during a 28-day incubation period. The antifungal activity (in %) of the individual and combined active ingredients was determined by calculating the reduction in mould growth observed on the oranges treated with the antifungal composition in comparison to the mould growth on the oranges treated with the control composition according to the Colby method (Colby, 1967) as described in Example 5.
(§1) The experiment was conducted as described in Example 6, except for the fact that each wounded and inoculated orange was treated with 150 μl of a freshly prepared aqueous antifungal composition comprising either 250 ppm natamycin (DSM Food Specialties, Delft, The Netherlands), 250 ppm fenpropidin or both. During the 26-day incubation period, the treated oranges were assessed on mould growth according to the two methods described in Example 5.
as §1, with “either 500” for “either 250”, “Netherlands), 400” for “Netherlands), 250”, “ppm spiroxamine” for “ppm fenpropidin”
as §1, with “Netherlands), 200” for “Netherlands), 250”, “ppm spiroxamine” for “ppm fenpropidin”

Botrytis cinerea = test: Treatment of strawberries (Example 5): wounded, inoculated, dipped in antifungal composition; assay type: in vivo; conditions: 500 ppm natamycin, 600 ppm fenpropidin or both; for Observed antifungal activity O (%): strawberries, 20° C.
Procedure: Twelve fresh, organic strawberries were used per treatment. Each strawberry was wounded with a 0.5 mm long cut and each wound was inoculated with 10 μl of a Botrytis cinerea suspension containing 1×10^5 of spores/ml. […] A composition without natamycin or fenpropidin was used as control. […] The treated strawberries were incubated in a closed box in the dark at 20° C. for 9 days. During incubation, mould growth on the strawberries was assessed in a twofold manner: […] The expected antifungal activity (E in %) of the combined antifungal composition comprising both active ingredients was calculated according to the Colby equation (Colby, 1967): […] wherein X and Y are the observed antifungal activities (in %) of the individual active ingredients X and Y, respectively.

## CC(Cc1ccc(C(C)(C)C)cc1)CN1CCCCC1 (stereo not drawn) [Fenpropidin, fenpropidin]
Penicillium italicum; Day 18, 20° C., 250 ppm natamycin, 250 ppm fenpropidin or both
  Number of moulded oranges/total number of 8 oranges: 6/8
Penicillium italicum; Day 19, 20° C., 250 ppm natamycin, 250 ppm fenpropidin or both
  Number of moulded oranges/total number of 8 oranges: 6/8
Penicillium italicum; Day 20, 20° C., 250 ppm natamycin, 250 ppm fenpropidin or both
  Number of moulded oranges/total number of 8 oranges: 7/8
Penicillium italicum; Day 21-22, 20° C., 250 ppm natamycin, 250 ppm fenpropidin or both
  Number of moulded oranges/total number of 8 oranges: 7 and 7/8
Penicillium italicum; Day 23-26, 20° C., 250 ppm natamycin, 250 ppm fenpropidin or both
  Number of moulded oranges/total number of 8 oranges: 7 and 7/8
Penicillium italicum; day 18, 250 ppm natamycin, 250 ppm fenpropidin or both
  Observed antifungal activity O (%): 59%
Penicillium italicum; day 19, 250 ppm natamycin, 250 ppm fenpropidin or both
  Observed antifungal activity O (%): 50%
Penicillium italicum; day 20, 250 ppm natamycin, 250 ppm fenpropidin or both
  Observed antifungal activity O (%): 43%
Penicillium italicum; day 21, 250 ppm natamycin, 250 ppm fenpropidin or both
  Observed antifungal activity O (%): 38%
Penicillium italicum; day 22, 250 ppm natamycin, 250 ppm fenpropidin or both
  Observed antifungal activity O (%): 30%
Penicillium italicum; day 22, 500 ppm natamycin, 500 ppm fenpropidin or both
  Observed antifungal activity O (%): 94%
Penicillium italicum; day 23, 250 ppm natamycin, 250 ppm fenpropidin or both
  Observed antifungal activity O (%): 16%
Penicillium italicum; day 23, 500 ppm natamycin, 500 ppm fenpropidin or both
  Observed antifungal activity O (%): 89%
Penicillium italicum; day 25, 250 ppm natamycin, 250 ppm fenpropidin or both
  Observed antifungal activity O (%): 4%
Penicillium italicum; day 25, 500 ppm natamycin, 500 ppm fenpropidin or both
  Observed antifungal activity O (%): 84%
Penicillium italicum; day 26, 250 ppm natamycin, 250 ppm fenpropidin or both
  Observed antifungal activity O (%): 0%
Penicillium italicum; day 26, 500 ppm natamycin, 500 ppm fenpropidin or both
  Observed antifungal activity O (%): 81%
Penicillium italicum; day 27, 500 ppm natamycin, 500 ppm fenpropidin or both
  Observed antifungal activity O (%): 80%
Penicillium italicum; day 28, 500 ppm natamycin, 500 ppm fenpropidin or both
  Observed antifungal activity O (%): 75%
Botrytis cinerea; Day 5, 20° C.
  Number of moulded strawberries/total number of 12 strawberries: 12 and 12/12
Botrytis cinerea; Day 6, 20° C.
  Number of moulded strawberries/total number of 12 strawberries: 12 and 12/12
Botrytis cinerea; day 4
  Observed antifungal activity O (%): 0%
Botrytis cinerea; day 5
  Observed antifungal activity O (%): 0%
Botrytis cinerea; day 6
  Observed antifungal activity O (%): 0%
Botrytis cinerea; day 7
  Observed antifungal activity O (%): 0%
Botrytis cinerea; day 8
  Observed antifungal activity O (%): 0%
Botrytis cinerea; day 9
  Observed antifungal activity O (%): 0%
